Data published in paper PMC6832219, “Synthesis of Novel Baicalein Amino Acid Derivatives and Biological Evaluation as Neuroprotective Agents” (Molecules, 2019).

What was measured:
injured SH-SY5Y cells = test: Protective effect against tert-butyl hydroperoxide-induced SH-SY5Y neurotoxicity cells (MTT assay); format: cell-based; conditions: Homo sapiens;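 on Proliferation Rate (%): 0% equals CoCl2-injured cells and 100% equals NGF-treated cells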
Protocol: The protective effects of baicalein derivatives in vitro was evaluated against tert-butyl, hydroperoxide-induced, SH-SY5Y neurotoxicity cells using an MTT assay. In addition, their toxicity evaluation was tested on normal H9C2 cells. The resulting proliferation rates (%) at different concentrations, as well as their 50% effective concentrations (EC50) for protecting damaged SH-SY5Y cells of the baicalein amino acid derivatives, are summarized in Table 2.
(§1) The SH-SY5Y ([…]) and H9C2 ([…]) cell lines were obtained from the Chinese Academy of Medical Sciences and Peking Union Medical College. All of the cell lines were grown in dulbecco’s modified eagle medium (DMEM) with 10% (v/v) fetal bovine serum (FBS) and 1% (v/v) penicillin/streptomycin (Thermo Technologies, New York, NY, USA), under a humidified atmosphere containing 5% CO2 at 37 °C. The baicalein derivatives were dissolved in DMSO (Sigma, St. Louis, MO, USA) and added at various concentrations to the cell culture.
(§2) The protective effect of these compounds was evaluated on SH-SY5Y and H9C2 cell lines via the MTT method. The cells growing in the logarithmic phase were cultured in 96-well plates at a density 3 × 10^3 cells/well and incubated for 24 h. Then each well was treated with the required concentrations (50 µM concentrations, 25 µM concentrations, 12.5µM concentrations, 6.25 µM concentrations, and 3.125 µM concentrations) of baicalein derivatives, and incubated 36 h at 37 °C with 5% CO2. After that, the cells were induced by H2O2 (final concentration, […]) for 12 h. Control-differentiated cells were injected with new growth media at equal amounts. Before […] MTT solution (5 mg/mL) was added to each well, the cell culture fluid was discarded, and […] fresh cell culture fluid was added. The plate was incubated for a further 4 h at 37 °C. The cell supernatant medium was removed carefully, without disturbing the attached cells, and formazan crystals were solubilized by adding 150 μL DMSO into each well. The absorbance was measured at 490 nm with a plate reader (BIORAD 550 spectrophotometer, Bio-rad Life Science Development Ltd., Beijing, China). H2O2 was dissolved in DMEM medium. Wells without drugs were used as blanks. The EC50 values were defined as the concentrations that causes the maximum effect of 50%; IC50 values were defined as the concentration of compound which gives 50% growth inhibition, and were calculated using the GraphPad Prism 5. The proliferation rates of damaged SH-SY5Y cells were calculated in the following formula (1): [OD490 (compound) − OD490 (CoCl2)]/[OD490 (NGF) − OD490 (CoCl2)] × 100%(1) The EC50 values were using the equation −pEC50 = log Cmax − log 2 × (ΣP − 0.75 + 0.25Pmax + 0.25Pmin)(2) where Cmax is the maximum concentration, ΣP is the sum of proliferation rates, Pmax is the maximum value of the proliferation rate, and Pmin is the minimum value of the proliferation rate. Cell viability was expressed as a percentage of the control.

H9C2 cells [1] = test: Toxicity on normal H9C2 cells (MTT assay); format: cell-based
Protocol: To study cytotoxicity on normal cells, the cytotoxicity of compounds against normal H9C2 cells were tested.
as §1, §2
The inhibition rate was calculated in the following equation: % inhibition = 1 − (Sample group OD/Control group OD) × 100%(3)

[2] = tested on: chick chorioallantoic membrane (CAM); test: Angiogenesis assay on chick chorioallantoic membrane (CAM), gelatin sponge; format: in vivo; conditions: 1 and 4 mg/mL on gelatin sponge
Protocol: Especially multi-effective neuroprotective agents present positive effects to neurosurgical patients. According to the references, baicalein can promote angiogenesis. Analogously, the angiogenesis activities of compound 8 were evaluated by a CAM assay (Figure 4 and Figure 5). The model was established according to our previous work. After implantation, the sponge is treated with a stimulator of blood vessel formation in the absence or presence of an angiogenesis inhibitor. […] The high survival rate of embryos and normal growth of medium and large vessels (inner diameter > 50 µm) indicates successful modeling and low toxicity of compound 8 […] (Figure 5). Suppression of small vessels (inner diameter < 50 µm) were recognized as angiogenesis activity. […]
Fertilized White Leghorn chicken eggs (50–65 g), provided by the Chinese Academy of Agricultural Sciences, were placed in an incubator as soon as embryogenesis started, and were kept under constant humidity of 65% at 37 °C. […] Quantitative evaluation of the angiogenic response, expressed as microvessel density, can be obtained by applying a morphometric method of “point counting” on histological CAM sections. Data was analyzed using a t-test of the statistics analysis system; the values were expressed as mean ± SD of six observations, and p < 0.05 was considered significant. […]

H9C2 cells [3] = test: Toxicity on normal H9C2 cells (MTT assay); format: cell-based; conditions: read-out: Survival Rate (%)

Work on `O=C(NC(Cc1ccccc1)C(=O)Oc1c(O)cc2oc(-c3ccccc3)cc(=O)c2c1O)OCc1ccccc1` (stereo not drawn) [Compound 8, 5,7-dihydroxy-4-oxo-2-phenyl-4H-chromen-6-yl 2-{[(benzyloxy)carbonyl]amino}-3-phenyl-proppanpate] yielded a viability at 3.125 µM (injured SH-SY5Y cells; 3.125 µM, injured SH-SY5Y cells, read-out: Proliferation Rate (%)) of 52.5%, a viability at 6.25 µM (injured SH-SY5Y cells; 6.25 µM, injured SH-SY5Y cells, read-out: Proliferation Rate (%)) of 75.1% and a viability at 12.5 µM (injured SH-SY5Y cells; 12.5 µM, injured SH-SY5Y cells, read-out: Proliferation Rate (%)) of 83.1%. The viability at 25 µM (injured SH-SY5Y cells; 25 µM, injured SH-SY5Y cells, read-out: Proliferation Rate (%)) was 87.3%, the viability at 50 µM (injured SH-SY5Y cells; 50 µM, injured SH-SY5Y cells, read-out: Proliferation Rate (%)) was 94% and the EC50 (injured SH-SY5Y cells; tert-butyl hydroperoxide-induced SH-SY5Y neurotoxicity, read-out: EC50 for protecting injured SH-SY5Y cells) was 4.31 µM. For the same compound, the viability at 6.25 µM (H9C2 cells [1]; 6.25 µM, H9C2 cells, MTT, read-out: Survival Rate (%)) was 195%, the viability at 12.5 µM (H9C2 cells [1]; 12.5 µM, H9C2 cells, MTT, read-out: Survival Rate (%)) was 182% and the viability at 25 µM (H9C2 cells [1]; 25 µM, H9C2 cells, MTT, read-out: Survival Rate (%)) was 169%. For the same compound, the viability at 50 µM (H9C2 cells [1]; 50 µM, H9C2 cells, MTT, read-out: Survival Rate (%)) was 168%, the “Toxicity against H9C2 cells (in words)” value (H9C2 cells [1]; normal H9C2 cells) was “lower toxicity on the H9C2 cell line” and the IC50 (H9C2 cells [1]; normal H9C2 cells, MTT) was over 100 µM. The “Toxicity in CAM model (embryo survival, medium and large vessels)” value [2] was “low toxicity”, the “Angiogenesis activity on CAM (small vessels)” value ([2]; 48 h) was “dramatically promote small angiogenesis in a dose-dependent manner” and the viability at 100 µM (H9C2 cells [3]) was 168%.
